Read-outs that look alike come from different tables or passages of the source.
Tested on: hypertriglyceridemic patients with cardiovascular disease or at high risk for cardiovascular disease
Conditions: human, in vivo
Procedure: The following clinical events that were positively adjudicated by the Clinical Endpoint Committee were analyzed as tertiary endpoints for the ITT intent-to-treat (ITT) population: • Composition of total mortality, or congestive heart failure (CHF); • Composite of CV death, or new CHF; • Sudden cardiac death; • Peripheral artery disease (PAD); and • Atrial fibrillation, or atrial flutter.
Definition of Cardiac Arrhythmia Requiring Hospitalization: An arrhythmia that either results in hospitalization (≥24 hours) during or within 24 hours of the termination of the last episode for treatment or requires continued hospitalization for treatment, including any one of the following: • Atrial arrhythmia—atrial fibrillation, atrial flutter, supraventricular tachycardia that requires cardio-version, drug therapy, or is sustained for greater than 1 minute; • Ventricular arrhythmia—Ventricular tachycardia or ventricular fibrillation requiring cardio-version and/or intravenous antiarrhythmics; and/or • Bradyarrhythmia—High-level AV block (defined as third-degree AV block or second-degree AV block), junctional or ventricular escape rhythm, or severe sinus bradycardia (typically with heart rate <30 bpm). The bradycardia must require temporary or permanent pacing.
The objective of the following study was to determine how icosapent ethyl affected the incidence of atrial fibrillation and/or flutter in patients from the REDUCE-IT trial, as described in Example 1.
Although not pre-specified as TEAEs of special interest, atrial fibrillation and atrial flutter were also explored post hoc as potential safety signals as discussed above in Example 7. A summary of TEAEs and SAEs of atrial fibrillation/flutter is presented in Table 83, along with positively adjudicated atrial fibrillation/flutter requiring hospitalization of ≥24 hours as a comprehensive compilation of all documented post-randomization occurrences of these atrial arrhythmias. Occurrences of atrial fibrillation or flutter not meeting endpoint criteria (i.e., not positively adjudicated as endpoints) were counted as TEAEs or SAEs, per seriousness criteria.

In the case of `CC/C=C\C/C=C\C/C=C\C/C=C\C/C=C\CCCC(=O)OCC` [AMR101, eicosapentaenoic acid ethyl ester], the “Adjudicated as Bradycardia/Heart Block (without Hosp. ≥24 hrs), patients (%)” value is reported as “(0.0) %”, the “Adjudicated as VTA/F (without Hosp. ≥24 hrs), patients (%)” value is reported as “(0.0) %” and the “Atrial fibrillation TEAE, Event Rate” value is reported as 5.3%. For the same molecule, the “Atrial fibrillation TEAE, Number of Subjects” value was 215, the “Atrial fibrillation and/or flutter adverse events, SAEs” value was 0.5% and the “Atrial fibrillation and/or flutter adverse events, TEAEs” value was 5.8%. For the same molecule, the “Atrial fibrillation or atrial flutter requiring hospitalization of ≥24 hours, patients with event” value was 3.1%, the “Atrial fibrillation/flutter AEs, %” value was “(7.7) %” and the “Atrial fibrillation/flutter AEs, (%)” value was 5.8%. The “Atrial fibrillation/flutter SAEs (not positively adjudicated as endpoints), patients” value was 0.6%, the “Atrial fibrillation/flutter TEAEs (not positively adjudicated as endpoints), patients” value was 7.7% and the “Positively Adjudicated Atrial Fibrillation/Flutter (requiring hospitalization)” value was 127 (3.1%) n (%). For the same molecule, the “Positively adjudicated Afib/Aflutter requiring ≥24 hours hospitalization, (%)” value was 3.1%, the “Positively adjudicated atrial fibrillation/flutter requiring ≥24 hours hospitalization, %” value was “(3.1) %” and the “Serious Afib/Aflutter AEs, (%)” value was 0.5%. The “Serious atrial fibrillation/flutter AEs, %” value was “(0.6) %”, the “Subjects with at least one Atrial Fibrillation/Atrial Flutter event” value was 321 and the “Treatment-emergent atrial fibrillation (Serious), Event Rate” value was 0.5%. The “Treatment-emergent atrial fibrillation (Serious), Number of Subjects” value was 21, the “Treatment-emergent atrial fibrillation, Event Rate” value was 5.3% and the “Treatment-emergent atrial fibrillation, Number of Subjects” value was 215. For the same molecule, the “Treatment-emergent atrial flutter (Serious), Event Rate” value was 0.0%, the “Treatment-emergent atrial flutter (Serious), Number of Subjects” value was 1 and the “Treatment-emergent atrial flutter, Event Rate” value was 0.8%. The “Treatment-emergent atrial flutter, Number of Subjects” value was 32, the “First onset of atrial fibrillation and/or flutter, Icosapent Ethyl-Placebo Risk Diff., % (95% CI)” value (from here on “First onset … (95% CI)”) (0.5 years) was −0.00% and the “First onset … (95% CI)” value (1 year) was 0.20%. The “First onset … (95% CI)” value (1.5 years) was 0.51%, the “First onset … (95% CI)” value (2 years) was 0.59% and the “First onset … (95% CI)” value (2.5 years) was 0.78%. The “First onset … (95% CI)” value (3 years) was 0.83%, the “First onset … (95% CI)” value (3.5 years) was 1.17% and the “First onset … (95% CI)” value (4 years) was 1.23%. For the same molecule, the “First onset … (95% CI)” value (4.5 years) was 1.00%, the “First onset … (95% CI)” value (5 years) was 1.08% and the “First onset … (95% CI)” value (5.5 years) was 1.00%. For the same molecule, the “Positively adjudicated atrial fibrillation and/or flutter, incidence” value (6 months) was 0.3% and the “First onset … (95% CI)” value (6 years) was 2.07%.

— US12427134B2, “Methods of reducing the risk of cardiovascular events in a subject with atrial fibrillation and/or atrial flutter” (priority 2019, dated 2025)
